Assay results reported in patent EP0112481A1, “Beta-lactam compound” (KYOWA HAKKO KOGYO CO., LTD, priority 1982, dated 1984).
In brackets after ≈: the same amount, converted by molar mass.

Legend:
Assay in all cases: Antibacterial effect, dilution method on Mueller-Hinton agar
Format in all cases: cell-based
Proteus vulgaris 6897 = settings: Mueller-Hinton agar (pH 7.0)
[1] = tested on: Enterobacter cloacae F 1510; settings: F1510, Mueller-Hinton agar (pH 7.0)
[2] = tested on: Staphylococcus aureus 209-P; settings: Mueller-Hinton agar (pH 7.0)
[3] = tested on: Krebsiella pneumoniae 8045; settings: Mueller-Hinton agar (pH 7.0)
[4] = tested on: Escherichia coli NIHJJC-2; settings: NIHJJC2, Mueller-Hinton agar (pH 7.0)
[5] = tested on: Citrobacter freundii F 1526; settings: F1526, Mueller-Hinton agar (pH 7.0)
Serratia marcescens T-26 = settings: T26, Mueller-Hinton agar (pH 7.0)
Proteus mirabilis 1287 = settings: Mueller-Hinton agar (pH 7.0)

MIC (Proteus vulgaris 6897) [µg/mL]	MIC [1] [µg/mL]	MIC [2] [µg/mL]	MIC [3] [µg/mL]	MIC [4] [µg/mL]	MIC [5] [µg/mL]	MIC (Serratia marcescens T-26) [µg/mL]	MIC (Proteus mirabilis 1287) [µg/mL]	SMILES
0.01 (≈ 0.0211 µM)	0.2 (≈ 0.422 µM)	1.56 (≈ 3.29 µM)	0.1 (≈ 0.211 µM)	0.01 (≈ 0.0211 µM)	0.2 (≈ 0.422 µM)	1.56 (≈ 3.29 µM)	0.01 (≈ 0.0211 µM)	CON=C(C(=O)NC1C(=O)N2C(C(=O)O)=C(C=Cc3nnnn3C)CCC12)c1csc(N)n1 (racemic) [Compound of Ref. Ex. 9, (±)-6,7-cis-7-[2-(2-aminothiazol-4-yl)-2-syn-methoxyiminoacetamido]-3-[2-(1-methyl-1H-tetrazol-5-yl)vinyl]-1-azabicyclo [4.2.0] oct-2-en-8-oxo-2-carboxylic acid]
0.01 (≈ 0.0216 µM)	1.56 (≈ 3.37 µM)	6.25 (≈ 13.5 µM)	0.39 (≈ 0.841 µM)	0.2 (≈ 0.432 µM)	0.78 (≈ 1.68 µM)	3.13 (≈ 6.75 µM)	0.1 (≈ 0.216 µM)	CCOC(=O)C=CC1=C(C(=O)O)N2C(=O)C(NC(=O)C(=NOC)c3csc(N)n3)C2CC1 (racemic) [Compound of Ref. Ex. 10, (±)-6,7-cis-7-[2-(2-aminothiazol-4-yl)-2-syn-methoxyiminoacetamido]-3-(2-ethoxycarbonvlviayl)-1-azabicyclo [4.2.0]oct-2-en-8-oxo-2-carboxylic acid]
